Measured values published in article PMC9938201, “Neuroprotective and antioxidant properties of new quinolylnitrones in in vitro and in vivo cerebral ischemia models” (Scientific Reports, 2023).

Target: T1, soybean lipoxygenase (LOX) (Glycine max, UniProt P08170)
T1 construct: gene LOX1.1
T1 sequence (P08170 1-839): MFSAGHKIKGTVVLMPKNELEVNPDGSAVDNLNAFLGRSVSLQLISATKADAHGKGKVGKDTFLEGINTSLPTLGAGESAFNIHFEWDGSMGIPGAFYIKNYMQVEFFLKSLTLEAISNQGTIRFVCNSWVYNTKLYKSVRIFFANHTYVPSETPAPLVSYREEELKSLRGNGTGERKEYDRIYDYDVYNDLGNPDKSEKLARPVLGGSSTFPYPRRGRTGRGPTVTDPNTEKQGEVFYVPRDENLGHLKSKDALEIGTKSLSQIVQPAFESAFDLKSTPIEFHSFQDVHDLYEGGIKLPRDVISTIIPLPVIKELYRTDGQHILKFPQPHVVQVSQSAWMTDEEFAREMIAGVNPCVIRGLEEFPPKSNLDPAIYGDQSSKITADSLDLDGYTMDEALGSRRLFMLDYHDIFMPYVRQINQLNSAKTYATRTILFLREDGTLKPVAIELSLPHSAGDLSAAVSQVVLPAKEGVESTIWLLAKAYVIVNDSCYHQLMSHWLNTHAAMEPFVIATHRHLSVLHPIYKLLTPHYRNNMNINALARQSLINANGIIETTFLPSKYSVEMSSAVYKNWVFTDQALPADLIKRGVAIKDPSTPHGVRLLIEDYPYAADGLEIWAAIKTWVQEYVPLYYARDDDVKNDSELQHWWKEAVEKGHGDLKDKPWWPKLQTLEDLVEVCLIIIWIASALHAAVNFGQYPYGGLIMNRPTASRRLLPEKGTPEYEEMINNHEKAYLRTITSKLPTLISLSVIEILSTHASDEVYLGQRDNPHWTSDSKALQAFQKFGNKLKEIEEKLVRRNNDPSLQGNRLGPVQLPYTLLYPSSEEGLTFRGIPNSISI
Assay: UV absorbance at […] nm, sodium linoleate oxidation by soybean LOX, pH […]
Format: biochemical

In the case of CC(C)(C)/[N+]([O-])=C/c1ccc2cccc(O)c2n1 [QN5], the IC50 is reported as 5 µM.
